Measured values taken from ChEMBL document CHEMBL1153451, “Novel aminopeptidase N inhibitors derived from antineoplaston AS2-5 (Part I)” (Bioorg Med Chem, 2009).
pIC50: −log10 of the molar value. Activity calls are given as the source filed them. The calls are words filed in the database; no cut-off is given here.

Legend:
[1] = biological target: T1, Aminopeptidase N (Sus scrofa) (UniProt P15145); test: (§1) Inhibition of pig kidney microsome aminopeptidase N by UV-visible spectrophotometer
T1 sequence (whole entry): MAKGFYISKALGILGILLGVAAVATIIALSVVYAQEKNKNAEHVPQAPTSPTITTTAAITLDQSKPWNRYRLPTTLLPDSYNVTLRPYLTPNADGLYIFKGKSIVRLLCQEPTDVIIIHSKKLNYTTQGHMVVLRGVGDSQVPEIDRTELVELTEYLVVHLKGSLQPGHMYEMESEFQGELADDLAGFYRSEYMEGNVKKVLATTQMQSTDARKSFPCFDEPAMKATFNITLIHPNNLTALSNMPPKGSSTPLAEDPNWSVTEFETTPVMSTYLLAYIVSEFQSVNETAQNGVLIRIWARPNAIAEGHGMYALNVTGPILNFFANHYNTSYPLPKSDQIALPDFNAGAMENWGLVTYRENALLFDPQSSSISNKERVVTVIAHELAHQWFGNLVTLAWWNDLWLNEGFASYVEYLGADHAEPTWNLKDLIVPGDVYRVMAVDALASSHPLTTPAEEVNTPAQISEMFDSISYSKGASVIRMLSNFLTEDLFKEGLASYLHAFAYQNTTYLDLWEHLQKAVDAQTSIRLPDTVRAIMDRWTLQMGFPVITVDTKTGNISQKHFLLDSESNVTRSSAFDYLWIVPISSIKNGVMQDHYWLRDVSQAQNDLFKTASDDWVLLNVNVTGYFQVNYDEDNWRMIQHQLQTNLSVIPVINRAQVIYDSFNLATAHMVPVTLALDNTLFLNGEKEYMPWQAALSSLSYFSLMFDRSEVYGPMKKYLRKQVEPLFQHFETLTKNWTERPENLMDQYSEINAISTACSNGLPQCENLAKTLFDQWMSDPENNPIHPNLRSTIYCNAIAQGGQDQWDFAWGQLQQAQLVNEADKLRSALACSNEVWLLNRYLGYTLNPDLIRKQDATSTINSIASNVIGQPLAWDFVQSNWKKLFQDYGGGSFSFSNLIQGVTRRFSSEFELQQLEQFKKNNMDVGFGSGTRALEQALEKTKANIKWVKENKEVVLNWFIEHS

[2] = biological target: 72 kDa type IV collagenase (Homo sapiens, UniProt P08253); test: Inhibition of MMP2 by spectrophotometry
Aminopeptidase N = biological target: T2, Aminopeptidase N (Sus scrofa, UniProt P15145); test: as §1
T2 sequence (P15145 whole entry): T1 sequence (whole entry)

Row | SMILES | Activity [1] | Activity [2] | pIC50 (Aminopeptidase N) | pIC50 [2]
1 | COc1cc(C(=O)N[C@H](CCC(=O)O)C(=O)Nc2ccc([N+](=O)[O-])cc2)cc(OC)c1OC | inactive | inactive |  | 
2 | COc1cc(C(=O)N[C@H](CCC(=O)O)C(=O)Nc2ccc(S(=O)(=O)Nc3nccs3)cc2)cc(OC)c1OC |  |  | 4.40 | 4.26
3 | COc1cc(C(=O)N[C@H](CCC(=O)O)C(=O)Nc2ccc(C(=O)O)c(O)c2)cc(OC)c1OC |  |  | 4.24 | 4.06
4 | COc1cc(C(=O)N[C@H](CCC(=O)O)C(=O)Nc2ccc(C(=O)O)cc2)cc(OC)c1OC |  |  | 4.18 | 4.15
5 | CC(C)C[C@H](NC(=O)[C@@H](O)[C@H](N)Cc1ccccc1)C(=O)O [UBENIMEX] |  |  |  | 4.39
6 | COc1cc(C(=O)N[C@H](CCC(=O)O)C(=O)Nc2nccs2)cc(OC)c1OC |  |  | 3.97 | 3.43
7 | COc1cc(C(=O)N[C@H](CCC(=O)O)C(=O)NCCCl)cc(OC)c1OC |  |  | 3.09 | 3.30
8 | COc1cc(C(=O)N[C@H](CCC(=O)O)C(=O)NNC(=O)c2nccs2)cc(OC)c1OC |  |  | 4.06 | 3.77
9 | COc1cc(C(=O)N[C@H](CCC(=O)O)C(=O)NNC(=O)c2cccnc2)cc(OC)c1OC |  |  | 4.14 | 3.94
10 | COc1cc(C(=O)NC2CCC(=O)N(c3ccccc3N)C2=O)cc(OC)c1OC (stereo not drawn) |  |  | 3.98 | 3.18
11 | COc1cc(C(=O)N[C@H](CCC(=O)O)C(=O)Nc2ccc(N)cc2)cc(OC)c1OC |  |  | 4.63 | 4.47
12 | COc1cc(C(=O)N[C@H](CCC(=O)O)C(=O)Nc2ccc(S(N)(=O)=O)cc2)cc(OC)c1OC |  |  | 3.99 | 3.20

More lines, now with the values ahead:

Row | Activity [1] | Activity [2] | pIC50 (Aminopeptidase N) | pIC50 [2] | SMILES
13 |  |  | 4.61 | 4.58 | COc1cc(C(=O)N[C@H](CCC(=O)O)C(=O)Nc2ccc(F)cc2)cc(OC)c1OC
14 |  |  | 4.38 | 4.26 | COc1cc(C(=O)N[C@H](CCC(=O)O)C(=O)Nc2ccc(Br)cc2)cc(OC)c1OC
15 |  |  | 4.18 | 4.11 | COc1cc(C(=O)N[C@H](CCC(=O)O)C(=O)NCc2cccc(I)c2)cc(OC)c1OC
16 |  |  | 4.34 | 4.28 | COc1cc(C(=O)N[C@H](CCC(=O)O)C(=O)NCc2ccc(Cl)cc2F)cc(OC)c1OC
17 |  |  | 3.75 | 3.54 | COc1cc(C(=O)N[C@H](CCC(=O)O)C(=O)NCc2cccc(Br)c2)cc(OC)c1OC
18 |  |  | 4.11 | 3.97 | COc1cc(C(=O)N[C@H](CCC(=O)O)C(=O)Nc2ccc(F)c(Cl)c2)cc(OC)c1OC
19 |  |  | 4.29 | 4.12 | COc1cc(C(=O)N[C@H](CCC(=O)O)C(=O)NCc2ccc(Br)cc2F)cc(OC)c1OC
20 |  |  | 4.09 | 3.91 | COc1cc(C(=O)N[C@H](CCC(=O)O)C(=O)Nc2cc(Cl)ccc2Cl)cc(OC)c1OC
21 |  |  | 4.05 | 3.96 | COc1cc(C(=O)N[C@H](CCC(=O)O)C(=O)Nc2ccc(F)cc2F)cc(OC)c1OC
22 |  |  | 4.40 | 4.28 | COc1cc(C(=O)N[C@H](CCC(=O)O)C(=O)Nc2ccc(Cl)cc2)cc(OC)c1OC
